± gives the expanded uncertainty stated by the source.
Test: xn = mol fraction of the nth substance listed
Details: 303.15 K, 100 kPa, Liquid; for viscosity: Capillary tube (Ostwald / Ubbelohde) method; for excess molar volume: Direct dilatometry; for speed of sound: Frequency=3 MHz, Sing-around technique in a fixed-path interferometer; for mass density: Pycnometric method

Cc1cccc(Cl)c1 [3-chlorotoluene] + CC(=O)N(C)C
Details | excess molar volume [m3/mol] | mass density [kg/m3] | speed of sound [m/s] | viscosity [mPa·s]
x2 = 0.0671 | – | 1063.49 ± 11 | 1298 ± 3 | –
x2 = 0.0838 | -1e-08 ± 6e-09 | – | – | 0.783 ± 0.012
x2 = 0.1003 | – | 1059.19 ± 11 | 1307 ± 3 | –
x2 = 0.1242 | -1.4e-08 ± 6e-09 | – | – | 0.786 ± 0.012
x2 = 0.1481 | – | 1053.01 ± 11 | 1317 ± 3 | –
x2 = 0.1735 | – | 1049.73 ± 11 | 1322 ± 3 | –
x2 = 0.1811 | -2e-08 ± 6e-09 | – | – | 0.789 ± 0.012
x2 = 0.2107 | -2.3e-08 ± 6e-09 | – | – | 0.805 ± 0.012
x2 = 0.2255 | – | 1042.98 ± 10 | 1333 ± 3 | –
x2 = 0.2658 | – | 1037.75 ± 10 | 1343 ± 3 | –
x2 = 0.2702 | -2.7e-08 ± 6e-09 | – | – | 0.811 ± 0.012
x2 = 0.3152 | -3e-08 ± 6e-09 | – | – | 0.817 ± 0.013
x2 = 0.3343 | – | 1028.85 ± 10 | 1356 ± 3 | –
x2 = 0.3595 | – | 1025.57 ± 10 | 1362 ± 3 | –
x2 = 0.3897 | -3.5e-08 ± 6e-09 | – | – | 0.823 ± 0.013
x2 = 0.4165 | -3.6e-08 ± 6e-09 | – | – | 0.828 ± 0.013
x2 = 0.4436 | – | 1014.58 ± 10 | 1378 ± 3 | –
x2 = 0.4865 | – | 1008.96 ± 10 | 1385 ± 3 | –
x2 = 0.5035 | -3.7e-08 ± 6e-09 | – | – | 0.832 ± 0.013
x2 = 0.5465 | -3.6e-08 ± 6e-09 | – | – | 0.837 ± 0.013
x2 = 0.5673 | – | 998.38 ± 10 | 1399 ± 3 | –
x2 = 0.6251 | -3.4e-08 ± 6e-09 | – | – | 0.841 ± 0.013
x2 = 0.6638 | – | 985.69 ± 9.9 | 1412 ± 3 | –
x2 = 0.7042 | – | 980.38 ± 9.8 | 1416 ± 3 | –
x2 = 0.7152 | -2.8e-08 ± 6e-09 | – | – | 0.846 ± 0.013
x2 = 0.7517 | -2.5e-08 ± 6e-09 | – | – | 0.85 ± 0.013
x2 = 0.7822 | – | 970.1 ± 9.7 | 1424 ± 3 | –
x2 = 0.8204 | -1.9e-08 ± 6e-09 | – | – | 0.855 ± 0.013
x2 = 0.9182 | – | 952.18 ± 9.6 | 1440 ± 3 | –
x2 = 0.9345 | -9e-09 ± 6e-09 | – | – | 0.86 ± 0.013

Clc1ccccc1Cl [1,2-dichlorobenzene] + CC(=O)N(C)C
Details | excess molar volume [m3/mol] | mass density [kg/m3] | speed of sound [m/s] | viscosity [mPa·s]
x2 = 0.0664 | – | 1275.7 ± 13 | 1263 ± 3 | –
x2 = 0.0805 | -3.6e-08 ± 6e-09 | – | – | 1.294 ± 0.016
x2 = 0.1017 | – | 1263.13 ± 13 | 1276 ± 3 | –
x2 = 0.1224 | -5e-08 ± 6e-09 | – | – | 1.29 ± 0.016
x2 = 0.1344 | – | 1251.49 ± 13 | 1284 ± 3 | –
x2 = 0.1605 | -6e-08 ± 6e-09 | – | – | 1.283 ± 0.016
x2 = 0.1841 | – | 1233.77 ± 12 | 1298 ± 3 | –
x2 = 0.2175 | -7.5e-08 ± 6e-09 | – | – | 1.277 ± 0.016
x2 = 0.2229 | – | 1219.92 ± 12 | 1307 ± 3 | –
x2 = 0.2611 | -8.4e-08 ± 6e-09 | – | – | 1.276 ± 0.016
x2 = 0.2821 | – | 1198.76 ± 12 | 1319 ± 3 | –
x2 = 0.3261 | -9.1e-08 ± 6e-09 | – | – | 1.261 ± 0.016
x2 = 0.4095 | – | 1152.99 ± 12 | 1344 ± 3 | –
x2 = 0.4319 | -9.2e-08 ± 6e-09 | – | – | 1.253 ± 0.016
x2 = 0.4585 | – | 1135.37 ± 11 | 1353 ± 3 | –
x2 = 0.4607 | -8.8e-08 ± 6e-09 | – | – | 1.24 ± 0.016
x2 = 0.5105 | -8.1e-08 ± 6e-09 | – | – | 1.232 ± 0.016
x2 = 0.5742 | – | 1093.68 ± 11 | 1377 ± 3 | –
x2 = 0.6242 | -5.5e-08 ± 6e-09 | – | – | 1.225 ± 0.016
x2 = 0.6565 | – | 1064.03 ± 11 | 1393 ± 3 | –
x2 = 0.7019 | -3.4e-08 ± 6e-09 | – | – | 1.218 ± 0.015
x2 = 0.7168 | – | 1042.36 ± 10 | 1402 ± 3 | –
x2 = 0.7571 | -1.8e-08 ± 6e-09 | – | – | 1.211 ± 0.015
x2 = 0.7764 | – | 1020.96 ± 10 | 1413 ± 3 | –
x2 = 0.8105 | -5e-09 ± 6e-09 | – | – | 1.201 ± 0.015
x2 = 0.822 | – | 1004.63 ± 10 | 1419 ± 3 | –
x2 = 0.8505 | 2e-09 ± 6e-09 | – | – | 1.112 ± 0.015
x2 = 0.9177 | – | 970.54 ± 9.7 | 1435 ± 3 | –
x2 = 0.9321 | 7e-09 ± 6e-09 | – | – | 0.908 ± 0.013

Cc1cccc([N+](=O)[O-])c1 [3-nitrotoluene] + CC(=O)N(C)C
Details | excess molar volume [m3/mol] | mass density [kg/m3] | speed of sound [m/s] | viscosity [mPa·s]
x2 = 0.0678 | – | 1133.63 ± 11 | 2077 ± 3 | –
x2 = 0.0851 | 1.8e-08 ± 6e-09 | – | – | 1.76 ± 0.021
x2 = 0.1256 | – | 1121.68 ± 11 | 2039 ± 3 | –
x2 = 0.1552 | 3e-08 ± 6e-09 | – | – | 1.752 ± 0.021
x2 = 0.1998 | – | 1106.36 ± 11 | 1958 ± 3 | –
x2 = 0.242 | 4.2e-08 ± 6e-09 | – | – | 1.71 ± 0.02
x2 = 0.2449 | – | 1097.04 ± 11 | 1906 ± 3 | –
x2 = 0.291 | – | 1087.34 ± 11 | 1857 ± 3 | –
x2 = 0.2931 | 4.9e-08 ± 6e-09 | – | – | 1.686 ± 0.02
x2 = 0.3451 | 5.4e-08 ± 6e-09 | – | – | 1.646 ± 0.02
x2 = 0.3485 | – | 1075.63 ± 11 | 1802 ± 3 | –
x2 = 0.395 | – | 1066.03 ± 11 | 1763 ± 3 | –
x2 = 0.4062 | 5.9e-08 ± 6e-09 | – | – | 1.603 ± 0.019
x2 = 0.455 | 6.2e-08 ± 6e-09 | – | – | 1.568 ± 0.019
x2 = 0.4577 | – | 1053.07 ± 11 | 1729 ± 3 | –
x2 = 0.4919 | – | 1046.01 ± 10 | 1699 ± 3 | –
x2 = 0.5191 | 6.5e-08 ± 6e-09 | – | – | 1.519 ± 0.018
x2 = 0.5429 | – | 1035.49 ± 10 | 1676 ± 3 | –
x2 = 0.5532 | 6.6e-08 ± 6e-09 | – | – | 1.492 ± 0.018
x2 = 0.5935 | – | 1025.05 ± 10 | 1656 ± 3 | –
x2 = 0.603 | 6.6e-08 ± 6e-09 | – | – | 1.451 ± 0.018
x2 = 0.6512 | 6.5e-08 ± 6e-09 | – | – | 1.408 ± 0.017
x2 = 0.6596 | – | 1011.39 ± 10 | 1632 ± 3 | –
x2 = 0.708 | – | 1001.42 ± 10 | 1616 ± 3 | –
x2 = 0.7125 | 6.3e-08 ± 6e-09 | – | – | 1.348 ± 0.017
x2 = 0.7561 | 5.9e-08 ± 6e-09 | – | – | 1.3 ± 0.016
x2 = 0.7751 | – | 987.57 ± 9.9 | 1589 ± 3 | –
x2 = 0.8151 | 5.1e-08 ± 6e-09 | – | – | 1.224 ± 0.016
x2 = 0.9654 | – | 948.44 ± 9.5 | 1473 ± 3 | –
x2 = 0.9727 | 1.2e-08 ± 6e-09 | – | – | 0.935 ± 0.013

Clc1cccc(Cl)c1 [1,3-dichlorobenzene] + CC(=O)N(C)C
Details | excess molar volume [m3/mol] | mass density [kg/m3] | speed of sound [m/s] | viscosity [mPa·s]
x2 = 0.0879 | – | 1248.69 ± 13 | 1277 ± 3 | –
x2 = 0.1045 | -3e-08 ± 6e-09 | – | – | 1.024 ± 0.014
x2 = 0.1294 | – | 1235.21 ± 12 | 1284 ± 3 | –
x2 = 0.1525 | -4.5e-08 ± 6e-09 | – | – | 1.023 ± 0.014
x2 = 0.1659 | – | 1223.28 ± 12 | 1290 ± 3 | –
x2 = 0.1941 | -5.4e-08 ± 6e-09 | – | – | 1.022 ± 0.014
x2 = 0.2267 | – | 1203.33 ± 12 | 1301 ± 3 | –
x2 = 0.262 | -6.7e-08 ± 6e-09 | – | – | 1.021 ± 0.014
x2 = 0.2831 | – | 1184.73 ± 12 | 1312 ± 3 | –
x2 = 0.3235 | -7.5e-08 ± 6e-09 | – | – | 1.02 ± 0.014
x2 = 0.3601 | – | 1159.16 ± 12 | 1326 ± 3 | –
x2 = 0.4052 | -7.7e-08 ± 6e-09 | – | – | 1.019 ± 0.014
x2 = 0.42 | – | 1139.1 ± 11 | 1337 ± 3 | –
x2 = 0.4672 | -7.3e-08 ± 6e-09 | – | – | 1.018 ± 0.014
x2 = 0.4742 | – | 1120.88 ± 11 | 1347 ± 3 | –
x2 = 0.522 | -6.6e-08 ± 6e-09 | – | – | 1.017 ± 0.014
x2 = 0.6086 | – | 1075.37 ± 11 | 1372 ± 3 | –
x2 = 0.6531 | -4e-08 ± 6e-09 | – | – | 1.016 ± 0.014
x2 = 0.6847 | – | 1049.44 ± 11 | 1385 ± 3 | –
x2 = 0.7245 | -2.5e-08 ± 6e-09 | – | – | 1.015 ± 0.014
x2 = 0.7295 | – | 1034.11 ± 10 | 1393 ± 3 | –
x2 = 0.7656 | -1.4e-08 ± 6e-09 | – | – | 1.014 ± 0.014
x2 = 0.7721 | – | 1019.55 ± 10 | 1400 ± 3 | –
x2 = 0.804 | -7e-09 ± 6e-09 | – | – | 1.013 ± 0.014
x2 = 0.8389 | – | 996.66 ± 10 | 1413 ± 3 | –
x2 = 0.8631 | 2e-09 ± 6e-09 | – | – | 1.011 ± 0.014
x2 = 0.8967 | – | 969.13 ± 9.7 | 1429 ± 3 | –
x2 = 0.9131 | – | – | – | 1.007 ± 0.014
x2 = 0.969 | – | 945.84 ± 9.5 | 1437 ± 3 | –
x2 = 0.9743 | – | – | – | 0.952 ± 0.013

From the NIST ThermoML archive (doi:10.1016/j.fluid.2015.03.048)
